Values joined by “and” are separate entries in the source; they are usually repeats but may differ in a detail not shown here. Equal entries are not always repeated. “Also recorded” adds a separate entry of the source. Where two headings read alike, the source gives them in different places. Square brackets hold non-standard residues; d marks the D form. Peptide text beside a SMILES is read from it. pY = N[C@@H](Cc1ccc(OP(=O)(O)O)cc1)C(=O)O; Hyp = O=C(O)[C@@H]1C[C@@H](O)CN1; Tic = O=C(O)[C@@H]1Cc2ccccc2CN1; Tle = CC(C)(C)[C@H](N)C(=O)O
Legend:
purified porcine DPIV = purified porcine DPIV (Sus scrofa, UniProt P22411); experiment: Determination of IC50 values, DPIV (Gly-Pro-pNA); type: biochemical; settings: Gly-Pro-pNA 0.4 mM, HEPES pH7.6, 30° C.
Protocol: 100 μl inhibitor stock solution were mixed with 100 μl buffer (HEPES pH7.6) and 50 μl substrate (Gly-Pro-pNA, final concentration 0.4 mM) and preincubated at 30° C. Reaction was started by addition of 20 μl purified porcine DPIV. Formation of the product pNA was measured at 405 nm over 10 min using the HTS 7000Plus plate reader (Perkin Elmer) and slopes were calculated. The final inhibitor concentrations ranged between 1 mM and 30 nM. For calculation of IC50 GraFit 4.0.13 (Erithacus Software) was used.

plasma DPIV activity = target: T1, plasma DPIV activity (Rattus norvegicus, UniProt P14740); experiment: DPIV inhibiting activity after intravasal and oral administration to Wistar rats; type: in vivo; settings: 100 mg/kg; for In vivo DPIV-inhibition at tmax, i.v. (%): intra-vasal (intra-arterial); for In vivo DPIV-inhibition at tmax, p.o. (%): oral
T1 construct: determination of plasma DPIV activity consisted of 80 μl reagent and 20 μl plasma sample; from tissue; host or cells: plasma of Wistar rats after i.v. or p.o. dosing
Protocol: Male Wistar rats (Shoe: Wist(Sho)) with a body weight ranging between 250 and 350 g were purchased from Tierzucht Schönwalde (Schönwalde, Germany).
After overnight fasting, 100 μl samples of heparinised arterial blood were collected at −30, −5, and 0 min. […] In the case of oral administration, an additional volume of 1 ml saline was injected into the arterial catheter. In the case of intra-arterial administration, the catheter was immediately flushed with 30 μl saline and an additional 1 ml of saline was given orally via the feeding tube.
All blood samples were collected into ice cooled Eppendorf tubes (Eppendorf-Netheler-Hinz, Hamburg, Germany) filled with 10 μl 1M sodium citrate buffer (pH 3.0) for plasma DPIV activity measurement. Eppendorf tubes were centrifuged immediately (12000 rpm for 2 min, Hettich Zentrifuge EBA 12, Tuttlingen; Germany): The plasma fractions were stored on ice until analysis or were frozen at −20° C. until analysis. All plasma samples were labelled with the following data: • Code number • Animal Number • Date of sampling • Time of sampling Analytical Methods
The assay mixture for determination of plasma DPIV activity consisted of 80 μl reagent and 20 μl plasma sample. […] The DPIV activity was expressed in mU/ml.

[1] = target: T2, dipeptidyl peptidase IV from porcine kidney (Sus scrofa, UniProt P22411); experiment: Ki determination, DPIV inhibition (glycylprolyl-4-nitroaniline); type: biochemical; settings: HEPES pH7.6, 30° C.
T2 construct: dipeptidyl peptidase IV from porcine kidney; from tissue; host or cells: porcine kidney

PepT1 [2] = target: T3, PepT1 (Oryctolagus cuniculus, UniProt P36836); experiment: Inhibition of 3H-D-Phe-Ala binding to PepT1-expressing P. pastoris cells
T3 construct: expressed in transfected cells; host or cells: Pichia pastoris cells expressing PepT1 (per the assay description)
T3 sequence (P36836 1-707): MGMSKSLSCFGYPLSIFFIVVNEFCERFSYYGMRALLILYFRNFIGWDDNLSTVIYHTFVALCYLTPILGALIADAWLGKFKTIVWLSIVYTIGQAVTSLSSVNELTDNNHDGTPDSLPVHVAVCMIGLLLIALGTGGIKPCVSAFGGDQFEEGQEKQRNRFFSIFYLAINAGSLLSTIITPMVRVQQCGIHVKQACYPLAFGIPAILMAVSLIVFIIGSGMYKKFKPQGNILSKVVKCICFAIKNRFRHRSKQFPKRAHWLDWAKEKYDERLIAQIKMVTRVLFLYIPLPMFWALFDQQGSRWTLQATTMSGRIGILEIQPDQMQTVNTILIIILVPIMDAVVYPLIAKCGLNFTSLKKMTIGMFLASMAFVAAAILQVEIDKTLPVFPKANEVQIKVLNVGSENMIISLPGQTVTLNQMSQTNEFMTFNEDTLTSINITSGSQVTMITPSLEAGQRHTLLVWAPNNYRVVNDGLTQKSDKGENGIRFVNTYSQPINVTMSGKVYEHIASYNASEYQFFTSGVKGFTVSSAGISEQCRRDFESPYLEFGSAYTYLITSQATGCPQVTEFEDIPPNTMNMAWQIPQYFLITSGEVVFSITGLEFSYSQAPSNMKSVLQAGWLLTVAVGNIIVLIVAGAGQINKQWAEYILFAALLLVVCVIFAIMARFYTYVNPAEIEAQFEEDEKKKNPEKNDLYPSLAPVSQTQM
Excerpt: (§1) Side chain-modified glutamyl thiazolidines having a structure H-Glu(X)-Thia were synthesised, with polyethylene glycol or glycine oligomers of various chain lengths being used as X (see Method A of example for description of synthesis). The binding characteristics of those derivatives and their transportability by the peptide transporter PepT1 were investigated.

PepT1 [3] = experiment: Transport at PepT1-expressing oocytes of X. leavis, two-electrode voltage clamp; type: cell-based
Excerpt: as §1

[4] = target: T4, porcine dipeptidyl peptidase II (DP II) (Sus scrofa, UniProt A0A5G2QK18); experiment: Inhibition of DPIV-like enzymes, dipeptidyl peptidase II; type: biochemical; settings: lysylalanylaminomethylcoumarine, 30° C.; read-out: Ki against porcine dipeptidyl peptidase II
T4 construct: The enzyme used was purified from porcine kidney; from tissue; host or cells: porcine kidney
Protocol: DP II (3.4.14.2) releases N-terminal dipeptides from oligopeptides if the N-terminus is not protonated (McDonald, J. K., Ellis, S. & Reilly, T. J., 1966, J. Biol. Chem., 241, 1494-1501). Pro and Ala in Pi-position are preferred residues. The enzyme activity is described as DPIV-like activity, but DP II has an acidic pH-optimum. The enzyme used was purified from porcine kidney.
100 μl glutaminyl pyrrolidine or glutaminyl thiazolidine in an concentration range of 1*10^−4 M-5*10^−8 M were admixed with 100 μl μl buffer solution (40 mM HEPES, pH7.6, 0.015% Brij, 1 mM DTT), 50 μl lysylalanylaminomethylcoumarine solution (5 mM) and 20 μl porcine DP II (250fold diluted in buffer solution). Fluorescence measurement was performed at 30° C. and λexiatation=380 nm, λemission=465 nm for 25 min using a plate reader (HTS7000plus, Applied Biosystems, Weiterstadt, Germany).

MADB106 tumor cells = experiment: In vivo cancer cell adhesion assay (CFSE labeled cells in lungs); parameters: species or system F344 rats; settings: wild-type F344USA rats, single injection i.v. + i.p., 30 min after inoculation, vs. saline; fumarate
Protocol: Cell culture, injection of tumor cells, dissection of the animals and immunohistochemistry were conducted as previously described (von Hörsten et al., 2000). In brief, 1×10^6 MADB106 tumor cells derived from log phase of tumor growth were injected via the lateral tail vein and lungs removed at different time points thereafter. For in situ quantification of tumor cells at early time points after injection (30 min), cells were vital dye stained using the fluorescein derivate 5- (and -6)-carboxyfluorescein diacetate succinimidyl ester (CFSE) before injection.
Control sections were included in which one or both primary antibodies were omitted.
Vital dye (Carboxyfluorescein; CFSE) labeling of MADB106 tumor cells allows the quantification of tumor cells and NK cells in thick sections of lung tissue by stereology in situ (von Hörsten et al, 2000). In the present study we produced thin sections (8 μm) of the same lungs (n=10) and performed additional microscopic counting by image analysis of DE1 positive cells. This was done to further simplify the previously validated stereological quantification technique. Therefore, in the present study, the assessment of DE1 positive tumor cells in lung tissue from different substrains 30 min after tumor inoculation was carried out using image analysis approach. […] Each right upper lobe of the lungs was sectioned at 6 randomly chosen non-adjacent levels. From each level, three sections were evaluated.

Chain of purified porcine DPIV (P22411 whole entry): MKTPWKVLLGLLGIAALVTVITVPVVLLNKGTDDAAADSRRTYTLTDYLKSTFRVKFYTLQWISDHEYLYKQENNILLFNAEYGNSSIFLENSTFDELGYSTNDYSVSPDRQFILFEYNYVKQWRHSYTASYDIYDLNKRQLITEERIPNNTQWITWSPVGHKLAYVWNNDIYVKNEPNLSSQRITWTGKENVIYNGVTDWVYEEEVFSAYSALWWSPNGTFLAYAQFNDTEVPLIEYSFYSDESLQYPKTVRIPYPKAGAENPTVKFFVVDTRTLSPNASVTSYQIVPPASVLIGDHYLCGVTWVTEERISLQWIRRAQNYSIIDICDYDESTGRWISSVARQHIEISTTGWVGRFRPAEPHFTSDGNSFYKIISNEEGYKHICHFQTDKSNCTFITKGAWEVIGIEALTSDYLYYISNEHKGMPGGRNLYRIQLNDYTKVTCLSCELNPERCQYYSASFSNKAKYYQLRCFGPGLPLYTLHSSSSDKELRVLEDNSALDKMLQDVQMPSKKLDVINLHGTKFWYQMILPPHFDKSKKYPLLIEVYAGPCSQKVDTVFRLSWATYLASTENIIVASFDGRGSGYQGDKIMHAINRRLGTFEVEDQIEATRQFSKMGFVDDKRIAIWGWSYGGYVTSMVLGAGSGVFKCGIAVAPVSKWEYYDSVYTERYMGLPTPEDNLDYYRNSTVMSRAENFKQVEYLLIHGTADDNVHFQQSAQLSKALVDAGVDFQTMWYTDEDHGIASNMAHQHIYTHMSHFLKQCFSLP
T2 sequence (P22411 whole entry): as above
T1 sequence (P14740 37-767 limits assumed): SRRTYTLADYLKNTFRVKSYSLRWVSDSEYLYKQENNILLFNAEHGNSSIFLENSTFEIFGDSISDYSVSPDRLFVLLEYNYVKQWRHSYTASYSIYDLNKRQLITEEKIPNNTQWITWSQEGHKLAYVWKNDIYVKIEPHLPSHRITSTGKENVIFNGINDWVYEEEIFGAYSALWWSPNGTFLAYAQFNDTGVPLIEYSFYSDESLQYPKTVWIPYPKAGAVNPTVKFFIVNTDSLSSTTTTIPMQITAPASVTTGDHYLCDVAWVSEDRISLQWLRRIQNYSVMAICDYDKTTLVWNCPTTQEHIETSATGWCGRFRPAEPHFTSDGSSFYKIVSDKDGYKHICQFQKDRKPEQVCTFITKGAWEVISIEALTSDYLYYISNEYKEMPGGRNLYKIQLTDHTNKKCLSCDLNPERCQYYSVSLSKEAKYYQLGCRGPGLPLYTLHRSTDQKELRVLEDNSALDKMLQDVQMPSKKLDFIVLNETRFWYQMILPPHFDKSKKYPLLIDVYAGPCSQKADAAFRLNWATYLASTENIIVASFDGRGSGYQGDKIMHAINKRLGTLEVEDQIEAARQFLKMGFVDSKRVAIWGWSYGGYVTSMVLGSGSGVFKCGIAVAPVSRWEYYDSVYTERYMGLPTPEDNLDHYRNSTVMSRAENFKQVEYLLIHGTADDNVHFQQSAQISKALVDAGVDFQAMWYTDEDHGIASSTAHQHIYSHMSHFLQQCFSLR
T4 sequence (A0A5G2QK18 28-502): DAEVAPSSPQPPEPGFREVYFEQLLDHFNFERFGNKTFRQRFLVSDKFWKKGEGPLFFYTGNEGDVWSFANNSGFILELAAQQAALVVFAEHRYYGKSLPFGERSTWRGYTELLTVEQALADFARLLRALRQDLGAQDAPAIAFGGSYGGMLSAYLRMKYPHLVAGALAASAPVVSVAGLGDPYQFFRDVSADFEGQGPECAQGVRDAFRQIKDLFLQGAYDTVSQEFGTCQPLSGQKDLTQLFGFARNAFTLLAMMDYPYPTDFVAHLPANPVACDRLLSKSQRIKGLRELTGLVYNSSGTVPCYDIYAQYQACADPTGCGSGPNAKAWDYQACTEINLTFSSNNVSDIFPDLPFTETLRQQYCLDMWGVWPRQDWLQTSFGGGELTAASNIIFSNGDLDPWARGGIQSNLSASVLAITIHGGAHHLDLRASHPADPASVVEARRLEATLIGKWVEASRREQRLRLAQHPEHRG

Row | IC50 (purified porcine DPIV) [µM] | Ki [1] | Compound | further results
1 | 1000 |  | CC[C@H](C)[C@H](NC(=O)[C@@H]1CCCN1C(=O)[C@@H]1Cc2ccccc2CN1)C(=O)O [Tic-Pro-Ile] (H-[Tic]-Pro-Ile-OH; N-terminus and C-terminus assumed) | 
2 |  |  | Br.CC(=O)OCC(=O)[C@@H]1CCCN1C(=O)[C@@H](NC(=O)[C@H](C)N)C(C)C [Ala-Val-Pro-acyloxy methyl ketone, H-Ala-Val-Pro-CH2O—C(O)CH3.HBr] | In vivo DPIV-inhibition at tmax, i.v. (%) (plasma DPIV activity): 89%; In vivo DPIV-inhibition at tmax, p.o. (%) (plasma DPIV activity): 86%
3 |  | 0.62 µM and 0.61 µM | N[C@@H](CCC(=O)O)C(=O)N1CCSC1 [H-Glu-thiazolidine] | EC50 (PepT1 [2]): 1100 µM; Imax, inward currents generated by the transport (PepT1 [3]): 35 ± 13 nA
4 |  | 1.7 µM | NC(CCC(=O)NO)C(=O)N1CCSC1 (stereo not drawn) [H-Glu(NHOH)-thiazolidine] | EC50 (PepT1 [2]): 3180 µM; Imax, inward currents generated by the transport (PepT1 [3]): 42 ± 11 nA
5 | 6000 |  | CC[C@H](C)[C@H](N)C(=O)N1C[C@H](O)C[C@H]1C(=O)N[C@H](C(=O)O)[C@@H](C)CC [Ile-Hyp-Ile] (H-Ile-[Hyp]-Ile-OH; N-terminus and C-terminus assumed) | 
6 |  | 8.8 µM | NC(CC(=O)NO)C(=O)N1CCSC1 (stereo not drawn) [H-Asp(NHOH)-thiazolidine] | 
7 | 0.0102 | 0.00105 µM | Val-Pro-acyloxy methyl ketone | 
8 |  | 3.11 µM | H-Glu(PEG)-Thia | EC50 (PepT1 [2]; read-out: EC50, concentration inhibiting binding of 3H-D-Phe-Ala to PepT1-expressing P. pastoris cells by 50%): > 10000 µM
9 |  | 3.5 µM | NC(=O)CC(N)C(=O)N1CCSC1 (stereo not drawn) [H-Asn-thiazolidine] | 
10 | 0.138 | 0.0373 µM | Val-Pro-benzothiazol methyl ketone | 
11 |  | 13 µM | NC(CC(=O)NO)C(=O)N1CCCC1 (stereo not drawn) [H-Asp(NHOH)-pyrrolidine] | 
12 | 67.5 |  | CC(C)[C@H](N)C(=O)N1CCC[C@H]1C(=O)N[C@H](C(=O)O)C(C)(C)C [Val-Pro-t-butyl-Gly] (H-Val-Pro-[Tle]-OH; N-terminus and C-terminus assumed) | 
13 |  |  | CCC(C)C(N)C(=O)N1CCSC1 (stereo not drawn) [H-Ile-Thia] | EC50 (PepT1 [2]): 980 µM; Imax, inward currents generated by the transport (PepT1 [3]): 25 ± 8 nA
14 | 273 | 273 µM | CC(C)(C)C(N)C(=O)C1CCCCC1 (stereo not drawn) [t-butyl-Gly-cyclohexyl ketone] | 
15 | 527 | 1.21 µM | NC(=O)CCC(N)C(=O)N1CCSC1 (stereo not drawn) [Gln-Thia, glutaminyl thiazolidine] | Ki [4]: 10.7 µM
16 |  | 3.5 µM | NC(Cc1c[nH]cn1)C(=O)N1CCCC1 (stereo not drawn) [H-His-pyrrolidine] | 
17 | 38.2 |  | CCC(C)C(N)C(=O)C1CCCC1 (stereo not drawn) [Ile-cyclopentyl ketone, 1-cyclopentyl-3-methyl-1-oxo-2-pentanaminium chloride] | 
18 |  | 1.8 µM | NC(Cc1c[nH]cn1)C(=O)N1CCSC1 (stereo not drawn) [H-His-thiazolidine] | 
19 | 0.579 | 0.0476 µM | CC(=O)C1CCCN1C(=O)C(N)C(C)C (stereo not drawn) [Val-Pro-methyl ketone] | 
20 |  |  | CC(C)[C@H](N)C(=O)N1CCCC1.O=C(O)/C=C/C(=O)O [valyl pyrrolidine fumarate] | tumor cell adhesion, CFSE positive cells in lung tissue (MADB106 tumor cells): no significant effect; also recorded: significant differences vs. saline treated controls were not found
21 | 0.0179 | 0.000536 µM | Val-Pro-benzoyl methyl ketone | 
22 |  | 12 µM | NC(=O)CC(N)C(=O)N1CCCC1 (stereo not drawn) [H-Asn-pyrrolidine] | 
23 |  |  | Br.CC(C)[C@H](NC(=O)[C@H](C)N)C(=O)N1CCC[C@H]1C(=O)COC(=O)c1ccccc1 [Ala-Val-Pro-benzoyl-methyl ketone, H-Ala-Val-Pro-CH2O—C(O)Ph.HBr] | In vivo DPIV-inhibition at tmax, i.v. (%) (plasma DPIV activity): 97%; In vivo DPIV-inhibition at tmax, p.o. (%) (plasma DPIV activity): 76%
24 |  | 2.9 µM | NC(CC(=O)O)C(=O)N1CCSC1 (stereo not drawn) [H-Asp-thiazolidine] | 
25 | 293 | 56.8 µM | CCC(C)C(N)C(=O)C1CCCCC1 (stereo not drawn) [Ile-cyclohexyl ketone] | 
26 |  | 2.8 µM | NC(CCC(=O)NO)C(=O)N1CCCC1 (stereo not drawn) [H-Glu(NHOH)-pyrrolidine] | 
27 | 49 | 13.1 µM | CC(C)C(N)C(=O)C1CCCC1 (stereo not drawn) [Val-cyclopentyl ketone] | 
28 |  | 0.27 µM | CC(C)C(N)C(=O)N1CCSC1 (stereo not drawn) [H-Val-thiazolidine] | 
29 | 1000 |  | Val-cyclohexyl ketone | 

Row | Compound | IC50 (purified porcine DPIV) [µM] | Ki [1] | further results
30 | CC[C@H](C)[C@H](NC(=O)[C@@H]1CCCN1C(=O)[C@@H](N)Cc1ccc(OP(=O)(O)O)cc1)C(=O)O [Tyr(P)-Pro-Ile] (H-[pY]-Pro-Ile-OH; N-terminus and C-terminus assumed) | 2000 |  | In vivo DPIV-inhibition at tmax, p.o. (%) (plasma DPIV activity): no inhibition
31 | N[C@@H](CCC(=O)NCC(=O)NCC(=O)NCC(=O)NCC(=O)NCC(=O)O)C(=O)N1CCSC1 [H-Glu(Gly5)-Thia] |  | 0.0993 µM | EC50 (PepT1 [2]): > 10000 µM
32 | CCC(C)C(N)C(=O)N1CC1 (stereo not drawn) [H-Ile-azididine] |  | 3.1 µM | 
33 | N[C@@H](CCC(=O)NCC(=O)NCC(=O)NCC(=O)O)C(=O)N1CCSC1 [H-Glu(Gly3)-Thia] |  | 0.0192 µM | EC50 (PepT1 [2]): 8540 µM
34 | NC(CC(=O)O)C(=O)N1CCCC1 (stereo not drawn) [H-Asp-pyrrolidine] |  | 0.014 µM | 

Reference: patent US7368576B2, “Dipeptidyl peptidase IV inhibitors and their uses as anti-cancer agents” (Probiodrug AG, priority 2001, dated 2008)
